Measured values as given in the supplement of paper PMC10307832.

Legend:
Assay in all cases: relative viability (nuclei count vs DMSO), 5 days (fraction); higher = more cells survive
[1] = compound: CC1=C(C(=O)N2C=CSC2=N1)CCN3CCC(=C(C4=CC=CC=C4)C5=CC=C(C=C5)F)CC3 + COc1cc2c(Oc3ccc(NC(=O)C4(C(=O)Nc5ccc(F)cc5)CC4)cc3F)ccnc2cc1OCCCN1CCOCC1 [Foretinib] (partner 0.25 µM)
Summary of the method: (§1)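 Lung cancer cell lines were seeded in 1536-well plates and dosed by pin tool the next day, with either a single drug or a fixed anchor-drug dose combined with five library-drug doses (not always all listed) spaced in √10 steps. Five days later, one step fixed the cells and stained their nuclei (final 0.05% Triton X-100, 1% formaldehyde, 1 ug/ml Hoechst), and nuclei were counted on 4× images. Relative viability is the nuclei count in treated wells divided by the count in vehicle wells, and each value is the median of duplicate plates.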

[2] = compound: CC1=C(C(=O)N2C=CSC2=N1)CCN3CCC(=C(C4=CC=CC=C4)C5=CC=C(C=C5)F)CC3 + Cc1nc(NC(=O)N2CCC[C@H]2C(N)=O)sc1-c1ccnc(C(C)(C)C(F)(F)F)c1 [Alpelisib] (partner 2 µM)
Summary of the method: as §1

[3] = compound: CC1=C(C(=O)N2C=CSC2=N1)CCN3CCC(=C(C4=CC=CC=C4)C5=CC=C(C=C5)F)CC3 + Nc1nc2[nH]cc(CCc3ccc(C(=O)N[C@@H](CCC(=O)O)C(=O)O)cc3)c2c(=O)[nH]1 [Pemetrexed] (partner 0.2 µM)
Summary of the method: as §1

[4] = compound: CC1=C(C(=O)N2C=CSC2=N1)CCN3CCC(=C(C4=CC=CC=C4)C5=CC=C(C=C5)F)CC3 + O=C(c1cc(Cc2n[nH]c(=O)c3ccccc23)ccc1F)N1CCN(C(=O)C2CC2)CC1 [Olaparib] (partner 8 µM)
Summary of the method: as §1

Row | Cell Line | relative viability ([1]; first compound 0.08 µM) | relative viability ([1]; first compound 0.253 µM) | relative viability ([1]; first compound 0.8 µM) | relative viability ([1]; first compound 2.53 µM) | relative viability ([1]; first compound 8 µM) | relative viability ([2]; first compound 0.08 µM) | relative viability ([2]; first compound 0.253 µM) | relative viability ([2]; first compound 0.8 µM) | relative viability ([2]; first compound 2.53 µM) | relative viability ([2]; first compound 8 µM) | relative viability ([3]; first compound 0.08 µM) | relative viability ([3]; first compound 0.253 µM) | relative viability ([3]; first compound 0.8 µM) | relative viability ([3]; first compound 2.53 µM) | relative viability ([3]; first compound 8 µM) | relative viability ([4]; first compound 0.08 µM) | relative viability ([4]; first compound 0.253 µM) | relative viability ([4]; first compound 0.8 µM) | relative viability ([4]; first compound 2.53 µM) | relative viability ([4]; first compound 8 µM)
1 | NCI-H596 | 0.797 | 0.936 | 0.885 | 1.1 | 0.519 | 0.396 | 0.478 | 0.624 | 0.503 | 0.426 | 0.49 | 0.511 | 0.488 | 0.584 | 0.466 | 0.67 | 0.646 | 0.677 | 0.695 | 0.708
2 | NCI-H2087 | 0.989 | 1.2 | 1.17 | 1.24 | 0.528 | 0.999 | 1.1 | 1.06 | 1.24 | 0.763 | 0.634 | 0.686 | 0.595 | 0.682 | 0.599 | 0.564 | 0.559 | 0.57 | 0.756 | 0.445
3 | NCI-H650 | 0.994 | 1.11 | 1.13 | 1.17 | 1.06 | – | 1.12 | 1.29 | 1.09 | 0.794 | 1.02 | 0.957 | 0.923 | 1.05 | 0.871 | 0.44 | 0.363 | 0.345 | 0.412 | 0.352
4 | A-427 | 1.08 | 1.1 | 1.16 | 1.15 | 1 | 1.15 | 1.11 | 1.05 | 1.1 | 1.08 | 1.06 | 1.07 | 0.929 | 1.07 | 0.952 | 0.779 | 0.74 | 0.723 | 0.803 | 0.658
5 | HCC-78 | 0.547 | 0.522 | 0.513 | 0.534 | 0.522 | 0.352 | 0.347 | 0.324 | 0.379 | 0.286 | 0.798 | 0.867 | 0.935 | 0.923 | 0.66 | 0.663 | 0.872 | 0.944 | 0.921 | 0.608
6 | SK-LU-1 | 0.909 | 0.597 | 1.01 | 1.12 | 0.581 | 1.24 | 0.925 | 1.13 | 1.33 | 0.826 | 1.12 | 0.942 | 0.995 | 1.13 | 0.597 | 0.442 | 0.45 | 0.459 | 0.429 | 0.402
7 | NCI-H441 | 1.07 | 0.968 | 1.05 | 0.976 | 0.84 | – | 0.638 | 0.79 | 1.01 | 0.588 | 0.289 | 0.255 | 0.252 | 0.296 | 0.254 | 0.5 | 0.502 | 0.515 | 0.642 | 0.367
8 | NCI-H2023 | 0.831 | 0.713 | 0.758 | 0.984 | 0.621 | 0.579 | 0.587 | 0.549 | 0.697 | 0.584 | 0.288 | 0.199 | 0.239 | 0.333 | 0.246 | 0.563 | 0.454 | 0.509 | 0.607 | 0.394
9 | NCI-H23 | 0.945 | 0.902 | 0.924 | 1.02 | 0.795 | 0.694 | 0.545 | 0.772 | 0.829 | 0.411 | 0.698 | 0.55 | 0.585 | 0.804 | 0.516 | 0.287 | 0.281 | 0.274 | 0.276 | 0.23
10 | COR-L23 | 0.898 | 1.02 | 1.07 | 1.23 | 0.584 | 0.755 | 1.05 | 0.818 | 0.877 | 0.667 | 0.198 | 0.21 | 0.199 | 0.203 | 0.203 | 0.311 | 0.32 | 0.344 | 0.376 | 0.31
11 | NCI-H1993 | 0.701 | 0.677 | 0.757 | 0.915 | 0.682 | 0.683 | – | 0.694 | 0.699 | 0.669 | 0.617 | 0.622 | 0.645 | 0.671 | 0.468 | 1 | 0.944 | 1.01 | 1.3 | 0.838
12 | NCI-H661 | 0.871 | 1.02 | 0.983 | 1.05 | 0.814 | 0.658 | 0.498 | 0.461 | 0.623 | 0.427 | 0.961 | 0.98 | 0.924 | 0.995 | 0.493 | 0.797 | 0.73 | 0.8 | 0.783 | 0.463
13 | COR-L 105 | 0.574 | 1.05 | 1.02 | 1.56 | 0.761 | 0.984 | 1.09 | 1.16 | 1.1 | 0.963 | 1.03 | 1.26 | 1.27 | 1.4 | 0.89 | 0.542 | 0.718 | 0.633 | 0.753 | 0.609
14 | NCI-H2405 | 1.08 | 1.03 | 1.09 | 1.04 | 0.969 | 0.74 | 0.798 | 0.914 | 0.792 | 0.731 | 1.11 | – | 1.07 | 1.08 | 0.758 | 0.941 | – | 0.889 | 0.989 | 0.79
